Tests used:
[1] = target: GST-Bcl2 (Homo sapiens, UniProt P10415); conditions: specific binding; Rodi et al.; cited from earlier work
[2] = test system: lambda phage; assay: Immunity experiments: plaque formation on lambda phage infection of LE392 cells containing engineered repressors, with and without taxol; type: cell-based; conditions: 30° C., scored at 24 and 48 hours
From the text: There are multiple ways to evaluate lambda repressor function. One such method exploits the central role of the repressor in controlling the decision of lambda phage to enter the lytic or the lysogenic phase. In the presence of a high concentration of functional cI in the bacterial cell, entering lambda phage are pushed into the lysogenic phase. In the absence of cI, bacteria are susceptible to infection by lambda phage: the lysed cells manifest as plaques on a bacterial lawn. The level of functional cI in a cell determines whether incoming phage will continue to enter the lytic cycle or choose the lysogenic cycle, when the phage is integrated into the host genome. Cells with functional cI can thus display immunity to phage superinfection. In addition it is also possible to conduct in vitro experiments, such as electrophoretic mobility shift assays where binding of purified protein to labeled oligonucleotide duplexes can be monitored.
The repressors were placed under the control of a constitutive promoter (tet promoter) in a pUNI (Invitrogen) donor vector. […]
Five sets of experiments have been done with each of the cI-bZIP, TBD-cI-bZIP, and TBD-ΔK-cI-bZIP constructs. […] Plaque phenotype was scored at 24 and 48 hours of incubation at 30° C. The number of plaques was counted for three experiments using 3-5 replicates for each set.

Sequence of GST-Bcl2 (P10415 whole entry): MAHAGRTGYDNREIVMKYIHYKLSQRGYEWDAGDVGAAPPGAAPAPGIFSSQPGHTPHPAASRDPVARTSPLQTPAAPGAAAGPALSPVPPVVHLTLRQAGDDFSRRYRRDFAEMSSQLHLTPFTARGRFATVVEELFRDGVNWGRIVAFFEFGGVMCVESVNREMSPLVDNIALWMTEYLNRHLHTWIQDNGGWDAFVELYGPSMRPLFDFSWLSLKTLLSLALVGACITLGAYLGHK

Molecule	Kd of taxol binding to GST-Bcl2 [1]	Change of plaque phenotype/size on addition of taxol ([2]; 100 uM taxol in culture and top agar)	Plaque phenotype (size) on infection with lambda phage ([2]; LE392 cells containing the repressor, absence of taxol)
CC(=O)O[C@H]1C(=O)[C@@]2(C)[C@H]([C@H](OC(=O)c3ccccc3)[C@]3(O)C[C@H](OC(=O)[C@H](O)[C@@H](NC(=O)c4ccccc4)c4ccccc4)C(C)=C1C3(C)C)[C@]1(OC(C)=O)CO[C@@H]1C[C@@H]2O [taxol]	nanomolar range	–	–
cI-bZIP: chimeric repressor: DNA binding domain and linker of lambda repressor (cI aa 1-132) fused to GCN4 leucine zipper; SEQ ID NO: 12	–	not changed	miniscule plaques barely visible to the eye

Reference: patent US20070196816A1, “Engineered stimulus-responsive switches” (priority 2000, published 2007)
